# From patent US20110052503A1, “BIODEGRADABLE CONTRAST AGENTS” (IOPHARMA TECHNOLOGIES AB, priority 2007, published 2011)
# Assay: Stability of iohexyl hexa-acetate in human plasma
# Conditions: iohexyl formed from 300 μM IHA in citrated plasma, 37° C., FIG. 1
# Description: A stock solution of iohexyl hexa-acetate was prepared by adding 100 mg IHA to a 100 ml volumetric flask, followed by 1.0 ml DMSO and deionised water to 100 ml, giving a final concentration of 1.0 mg/ml. The plasma solution was prepared by adding 1.61 ml of the IHA stock solution to 3.39 ml of citrated bovine plasma, giving a final concentration of 300 μM. The citrated human plasma was incubated at 37° C., and 0.25 ml plasma removed at 1, 2, 3, 4, 6, 8, 24, 30 and 48 h. Proteins were discarded from the samples by centrifugal filtration and the resulting filtrates analyzed by HPLC.
smiles,measurement,setting,value
CC(=O)N(CC(O)CO)c1c(I)c(C(=O)NCC(O)CO)c(I)c(C(=O)NCC(O)CO)c1I (centres unmarked) [iohexyl],"concentration of iohexyl in plasma, first 8 h",first 8 h,constant
same,"concentration of iohexyl in plasma, 8 to 48 h",from 8 to 48 h,increases dramatically
